# Tested on: Wnt signaling pathway
# Assay: Reporter gene assay (SuperTOPFLASH luciferase, LiCl stimulated, Hek-293 STF1.1 cells)
# Type: cell-based
# Conditions: Homo sapiens, HEK293; at the concentration of 10 μM; stably transfected cell line Hek-293, STF1.1; 20 mM LiCl medium added, 24 hours; read-out: inhibitory activity determined by reporter gene assay
# Procedure: Screening for inhibitory action of the Wnt signaling pathway can be carried out according to the following procedure using the stably transfected cell line Hek-293, STF1.1. • Growth Medium: DMEM, 10% FBS, Pen-Strep, supplemented with 400 μg/mL G418 to maintain selection of SuperTOPFLASH driven Luciferase gene • 1. On the day prior to assay, split cells into a white opaque 96-well plate at 20,000 cells per well in 200 μl of complete growth medium • 2. Incubate the plate overnight at 37° C., 5% CO2 and allow the cells to attach • 3. Next day, prepare the inhibitors to be tested in complete growth medium, without G418, at 2× the desired final concentration (all conditions are done in duplicates) • 4. Carefully remove the old medium from each well using a multiple pipettor • 5. […] Read plate on the Packard TopCount
# In the tables, the compounds having inhibitory activity more than 50% at the concentration of 10 microM (μM) determined by reporter gene assay are shown below.
# Screening for inhibitory action of the Wnt signaling pathway was carried out according to the following procedure using the stably transfected cell line Hek-293, STF1.1 • Growth Medium: DMEM, 10% FBS, Pen-Strep, supplemented with 400 μg/mL G418 to maintain selection of SuperTOPFLASH driven Luciferase gene • 1. […] Read plate on the Packard TopCount
smiles,measurement,value
"CN1[C@@H](Cc2ccc(O)cc2)C(=O)N(Cc2cccc3ccccc23)CC2N(C(=O)NCc3ccccc3)CCC(=O)N21 (stereo partly drawn) [Example I-268, (2S)—N-benzyl-2-(4-hydroxybenzyl)-1-methyl-4-(naphthalen-1-ylmethyl)-3,9-dioxooctahydropyrimido[1,2-b][1,2,5]triazepine-6(7H)-carboxamide]",inhibition at 10 µM,≥ 50%

# Reference: patent US10017522B2, “Alpha helix mimetics and methods relating thereto” (PRISM BioLab Co., Ltd., priority 2009, dated 2018)
